Source: patent publication US20120309087A1, “CANCER THERAPY” (University Court of The University of Dundee, priority 2006, published 2012)
Read-outs that look alike come from different tables or passages of the source.

Assays:
[1] = test system: ARE-driven luciferase activity in AREc32 cells; assay: Induction of ARE-driven luciferase activity in stable AREc32 reporter cells; assay type: cell-based, human; settings: for CD, concentration of inducting agent that doubled luciferase reporter activity: DMSO set at 1
[2] = test system: AKR1C mRNA in AREc32 cells; assay: AKR1C mRNA in AREc32 cells (TaqMan); settings: without pre-treatment with BSO; 24 h
[3] = test system: MCF7 cells; assay: cells; assay type: cell-based
[4] = test system: A549 cells; assay: Cytotoxicity in A549 cells (ATP levels, 72 h); assay type: cell-based, human; settings: single agent
[5] = test system: Fas-induced killing; settings: WO 01/57189; cited from earlier work
[6] = test system: AKR1C and NQO1 protein in MCF7 cells; assay: AKR1C and NQO1 protein in MCF7 cells (Western blots); assay type: cell-based, human; settings: sulforaphane 5 μM + retinoid 0.5 μM, 24 hrs
Procedure: Method: AREc32 cells were seeded out in 96 well plates and treated with DMSO (control), tBHQ (50 μM), tBHQ+BTB09463 (5 μM) or tBHQ+Retinoic acid (1 μM). After 24 hours incubation, cells were washed and lysed before measuring luciferase activity. BTB09463 is 1-{4-[(3,4-dichlorobenzyl)oxy]phenyl}ethan-1-one. […] Method: AREc32 cells were seeded out in 96 well plates and dosed with BTB09463 (2.5, 5 or 10 μM) for 0, 24 or 48 hrs before treatment with tBHQ (50 μM). 24 hours after the addition of tBHQ, cells were washed and lysed before measuring luciferase activity. […] Method: ARE c32 cells were seeded out in 96 well plates and treated with DMSO (control), tBHQ (50 μM), tBHQ+retinoid (0.25, 0.5 and 1 μM). After 24 hours incubation, cells were washed and lysed before measuring luciferase activity. […] See FIG. 16 Method: A. Caco-2 cells were treated with the known ARE-gene inducer sulforaphane (5 μM), either alone or concomitantly with BTB09463 (5 μM) or Retinoic acid (1 μM). After 24 hrs, cell lysates were prepared and Western blotting performed to measure the levels of AKR1C protein. B. MCF7 cells were treated with sulforaphane (5 μM), either alone or concomitantly with BTB09463 (5 μM). After 24 hrs, cell lysates were prepared and Western blots performed to detect the levels of AKR1C and NQO1; GAPDH was used as a loading control in MCF7 cells. […] Method: Caco-2 cells were treated with DMSO (control), BTB09463 (5 μM), sulforaphane (5 μM) or a combination of sulforaphane plus BTB09463. After 24 hrs treatment, cells were harvested and RNA isolated. cDNA for each sample was generated by reverse transcription and subsequently used in real time PCR analysis of gene transcription (TaqMan analysis) for the ARE-driven genes AKR1C1 and NQO1. Data was normalised to the internal control 18S RNA and the relative levels of AKR1C1 and NQO1 calculated using the comparative CT method. […] Method: MCF7 cells were treated with the known ARE-gene inducer sulforaphane (5 μM), either alone or with various retinoids (0.5 μM). After 24 hrs, cell lysates were prepared and Western blots were performed to detect the levels of AKR1C protein present. […] See FIG. 19 Method: ARE reporter cell line AREc23 was seeded into 96 well plates and treated with a previously determined non-toxic concentration of cytotoxic drug. After 24 hours incubation, cells were washed and lysed before measuring luciferase activity. […] See FIG. 20a Method: ARE reporter cell line AREc23 was seeded into 96 well plates and treated with DMSO (control), Carmustine (100 μM), Carmustine+BTB09463 (5 μM) or Carmustine+Retinoic acid (5 μM) After 24 hours incubation, cells were washed and lysed before measuring luciferase activity. […] After 24 hours incubation, cells were washed and lysed before measuring luciferase activity. B. Modified repeat of experiment A, with cells being pretreated with L-buthionine-(SR)-sulfoximine (BSO), an inhibitor of enzymes in the glutathione synthesis pathway. After 24 hours incubation, cells were washed and lysed before measuring luciferase activity. […] Method: Caco-2 cells were treated for 24 hrs with DMSO (control), Carmustine (100 μM), Carmustine+BTB09463 (5 μM). After 24 hrs, cell lysates were prepared and Western blots to detect the levels of AKR1C. […] Method: MCF7 cells were treated for 24 hrs with DMSO (control; Lane 1), Sulforaphane (5 μM) (Lane 2), Carmustine (100 μM) (Lane 3), Carmustine+BTB09463 (5 μM) (Lane 5). (Lane 4 represents experimental conditions irrelevant to the application). After 24 hrs, cell lysates were prepared and Western blots to detect the levels of Nrf2, NQO1 and AKR1C proteins.

[7] = test system: AKR1C1, NQO1, GCLC, GCLM mRNA in A549 cells; assay: Constitutive mRNA of ARE-driven genes in A549 cells (Taqman); assay type: cell-based, human; settings: BTB09463 1, 5, 20, 40 μmol/l or retinoids 0.050, 0.20, 0.50, 2.0 μmol/l, 24 hrs
[8] = test system: ARE-driven luciferase activity in AREc32 cells; assay: Antagonism of induced ARE-driven luciferase activity in AREc32 cells; assay type: cell-based, human; settings: 5 mM NAC; BSO pre-treated cells; cisplatin, melphalan, chlorambucil, BCNU
[9] = AREc32, 24 h, grouping of drugs by effect on luciferase activity

## COc1ccc(O)c(C(C)(C)C)c1 [BHA]
[1]; AREc32, 24 h
  CD, concentration of inducting agent that doubled luciferase reporter activity: 20 µM

## S=C(S)N1CCCC1 [PDTC]
[1]; AREc32, 24 h
  CD, concentration of inducting agent that doubled luciferase reporter activity: 20 µM

## N[C@@H](Cc1ccc(N(CCCl)CCCl)cc1)C(=O)O [Mephalan, melphalan]
[1]; 50 μM BSO 24 h, then 10 μM cisplatin, 20 μM melphalan, 100 μM BCNU or 100 μM chlorambucil 24 h
  induction of luciferase activity after BSO pre-treatment: 5 fold
[1]; 24 h, sub-lethal doses, no BSO, listed as melphalan
  effect on luciferase activity in AREc32 cells (in words): weak inducers
[1]; 24 h, sub-lethal doses, no BSO, listed as mephalan
  effect on luciferase activity in AREc32 cells (in words): modestly increased
[1]; AREc32, 24 h, concentration of each drug given in column Conc., mean ± S.D.
  Fold increase (luciferase activity relative to control value): 1.3 ± 0.06
[1]; [9]
  Type of modulation: Weak inducers
[2]
  mRNA level of AKR1C (in words): only slightly increased

## CN(Cc1cnc2nc(N)nc(N)c2n1)c1ccc(C(=O)N[C@@H](CCC(=O)O)C(=O)O)cc1 [Methotrexate]
[1]; 24 h, sub-lethal doses, no BSO
  effect on luciferase activity in AREc32 cells (in words): no effect
[1]; [9]
  Type of modulation: Inactive

## Bleomycin
[3]; single agent
  IC50: 660 µM
[4]
  IC50: 55 µM

## O=c1oc2ccccc2c(O)c1Cc1c(O)c2ccccc2oc1=O [Dirumarol]
[5]
  protection conferred by Nrf2 against Fas-induced killing: antagonise protection conferred by Nrf2 against Fas-induced killing

## COS(C)(=O)=O [MMS]
[1]; AREc32, 24 h
  CD, concentration of inducting agent that doubled luciferase reporter activity: 100 µM

## CC1=C(/C=C/C(C)=C/C=C/C(C)=C/C=O)C(C)(C)CCC1 [all-trans retinal]
[6]
  sulforaphane-induced AKR1C protein: reduced the expression of sulforaphane-induced AKR1C
[7]
  constitutive expression of AKR1C1 mRNA: inhibited the constitutive expression of AKR1C1 in a concentration-dependent manner

## COc1cccc2c1C(=O)c1c(O)c3c(c(O)c1C2=O)C[C@@](O)(C(=O)CO)C[C@@H]3O[C@H]1C[C@H](N)[C@H](O)[C@H](C)O1 [Doxorubicin]
[1]; 24 h, sub-lethal doses, no BSO
  effect on luciferase activity in AREc32 cells (in words): no effect
[1]; [9]
  Type of modulation: Inactive

## CC(=O)O[C@H]1C(=O)[C@@]2(C)[C@H]([C@H](OC(=O)c3ccccc3)[C@]3(O)C[C@H](OC(=O)[C@H](O)[C@@H](NC(=O)c4ccccc4)c4ccccc4)C(C)=C1C3(C)C)[C@]1(OC(C)=O)CO[C@@H]1C[C@@H]2O [Paclitaxol]
[1]; 24 h, sub-lethal doses, no BSO
  effect on luciferase activity in AREc32 cells (in words): no effect
[1]; [9]
  Type of modulation: Inactive

## S=P(N1CC1)(N1CC1)N1CC1 [Thiotepa]
[1]; 24 h, sub-lethal doses, no BSO
  effect on luciferase activity in AREc32 cells (in words): no effect
[1]; [9]
  Type of modulation: Inactive

## COc1cc(C)c(/C=C/C(C)=C/C=C/C(C)=C/C(=O)O)c(C)c1C [Acitretin]
[6]
  sulforaphane-induced AKR1C protein: reduced the expression of sulforaphane-induced AKR1C
[3]; 72 hrs
  synergy with Bleomycin (cell killing, isobologram): very potent, synergistic increase in cell killing

## O=P1(N(CCCl)CCCl)NCCCO1 (stereo not shown) [Cyclophosphamide]
[1]
  Type of modulation: Inactive
  effect on luciferase activity in AREc32 cells (in words): did not have any effect

## CCOc1ccc2c(c1)C(C)=CC(C)(C)N2 [Ethoxyquin]
[1]; AREc32, 24 h
  CD, concentration of inducting agent that doubled luciferase reporter activity: 5 µM

## CC(=O)N[C@@H](CS)C(=O)O [NAC]
[8]
  repression of anticancer drug induction of luciferase activity: nearly completely repressed
